molecular target: Factor D (Homo sapiens, UniProt P00746); assay: Factor D esterolytic assay (Z-Lys-SBzl thioester substrate, DTNB, 405 nm); type: biochemical; conditions: substrate Z-Lys-SBzl 1.29 mM, 100 mM HEPES, 500 mM NaCl, pH 7.5, 10% DMSO, tested a minimum of three times
Procedure, shortened: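 Human Factor D hydrolysis of Z-Lys-SBzl (1.29 mM) monitored at 405 nm via DTNB thiol detection for 600 s, 690 nm background subtracted. Buffer 100 mM HEPES, 500 mM NaCl, pH 7.5, 10% DMSO; substrate added immediately or after room-temperature preincubation. IC50 from percent inhibition of rate, at least three tests.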

Chain of Factor D (P00746 26-253): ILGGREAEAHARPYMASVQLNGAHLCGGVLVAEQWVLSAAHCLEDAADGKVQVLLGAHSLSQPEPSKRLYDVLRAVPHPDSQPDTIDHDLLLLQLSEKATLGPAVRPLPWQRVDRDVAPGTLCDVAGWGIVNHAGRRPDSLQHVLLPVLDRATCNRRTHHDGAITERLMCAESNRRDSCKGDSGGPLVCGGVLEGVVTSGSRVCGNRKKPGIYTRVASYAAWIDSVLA

IC50, < 100 nM:
C[C@@]12C[C@@H](C(=O)Nc3cccc(Br)n3)N(C(=O)Cn3c4ccc(C(N)=O)cc4c4c(N)ncnc43)[C@@H]1C2 [Compound 203a, 4-amino-9-(2-((1R,3S,5R)-3-((6-bromopyridin-2-yl)carbamoyl)-5-methyl-2-azabicyclo[3.1.0]hexan-2-yl)-2-oxoethyl)-9H-pyrimido[4,5-b]indole-6-carboxamide]
CNC(=O)c1ccc2c(c1)c1c(N)ncnc1n2CC(=O)N1[C@@H]2C[C@@H]2C[C@H]1C(=O)Nc1cccc(Br)n1 [Compound 204a, 4-amino-9-(2-((1R,3S,5R)-3-((6-bromopyridin-2-yl)carbamoyl)-2-azabicyclo[3.1.0]hexan-2-yl)-2-oxoethyl)-N-methyl-9H-pyrimido[4,5-b]indole-6-carboxamide]
Cc1ccc(-c2ccc3c(c2)c2c(N)ncnc2n3CC(=O)N2[C@@H]3C[C@@H]3C[C@H]2C(=O)Nc2cccc(Br)n2)cc1 [Compound 205c, (1R,3S,5R)-2-(2-(4-amino-6-(p-tolyl)-9H-pyrimido[4,5-b]indol-9-yl)acetyl)-N-(6-bromopyridin-2-yl)-2-azabicyclo[3.1.0]hexane-3-carboxamide]
C[C@@]1(F)C[C@@H](C(=O)Nc2cccc(Br)n2)N(C(=O)Cn2c3ccc(C(F)(F)F)cc3c3c(N)ncnc32)C1 [Compound 207b, (2S,4R)-1-(2-(4-amino-6-(trifluoromethyl)-9H-pyrimido[4,5-b]indol-9-yl)acetyl)-N-(6-bromopyridin-2-yl)-4-fluoro-4-methylpyrrolidine-2-carboxamide]
C[C@H]1C[C@@H](C(=O)Nc2cccc(Br)n2)N(C(=O)Cn2c3ccc(C(F)(F)F)cc3c3c(N)ncnc32)C1 [Compound 208d, (2S,4S)-1-(2-(4-amino-6-(trifluoromethyl)-9H-pyrimido[4,5-b]indol-9-yl)acetyl)-N-(6-bromopyridin-2-yl)-4-methylpyrrolidine-2-carboxamide]
Cc1ccc(Br)nc1NC(=O)[C@@H]1C[C@@](C)(F)CN1C(=O)Cn1c2ccc(C(F)(F)F)cc2c2c(N)ncnc21 [Compound 209b, (2S,4R)-1-(2-(4-amino-6-(trifluoromethyl)-9H-pyrimido[4,5-b]indol-9-yl)acetyl)-N-(6-bromo-3-methylpyridin-2-yl)-4-fluoro-4-methylpyrrolidine-2-carboxamide]
C[C@@]1(F)C[C@@H](C(=O)Nc2cncc(Br)n2)N(C(=O)Cn2c3ccc(C(F)(F)F)cc3c3c(N)ncnc32)C1 [Compound 213d, (2S,4R)-1-(2-(4-amino-6-(trifluoromethyl)-9H-pyrimido[4,5-b]indol-9-yl)acetyl)-N-(6-bromopyrazin-2-yl)-4-fluoro-4-methylpyrrolidine-2-carboxamide]
C[C@@]12C[C@@H](C(=O)Nc3cccc(Br)n3)N(C(=O)Cn3c4ccc(CCC(=O)O)cc4c4c(N)ncnc43)[C@@H]1C2 [Compound 214b, 3-(4-amino-9-(2-((1R,3S,5R)-3-((6-bromopyridin-2-yl)carbamoyl)-5-methyl-2-azabicyclo[3.1.0]hexan-2-yl)-2-oxoethyl)-9H-pyrimido[4,5-b]indol-6-yl)propanoic acid]
CN(C)c1ccc2c(c1)c1c(N)ncnc1n2CC(=O)N1[C@H](C(=O)Nc2cccc(Br)n2)C[C@@]2(C)C[C@@H]12 [Compound 215g, (1R,3S,5R)-2-(2-(4-amino-6-(dimethylamino)-9H-pyrimido[4,5-b]indol-9-yl)acetyl)-N-(6-bromopyridin-2-yl)-5-methyl-2-azabicyclo[3.1.0]hexane-3-carboxamide]
COC(=O)c1cc(C)c2c(c1)c1c(N)ncnc1n2CC(=O)N1[C@H](C(=O)Nc2cccc(Br)n2)C[C@@]2(C)C[C@@H]12 [Compound 216g, methyl 4-amino-9-(2-((1R,3S,5R)-3-((6-bromopyridin-2-yl)carbamoyl)-5-methyl-2-azabicyclo[3.1.0]hexan-2-yl)-2-oxoethyl)-8-methyl-9H-pyrimido[4,5-b]indole-6-carboxylate]
COC(=O)c1cc(C)c2c(c1)c1c(N)ncnc1n2CC(=O)N1[C@@H]2C[C@@H]2C[C@H]1C(=O)Nc1cccc(Br)n1 [Compound 217a, methyl 4-amino-9-(2-((1R,3S,5R)-3-((6-bromopyridin-2-yl)carbamoyl)-2-azabicyclo[3.1.0]hexan-2-yl)-2-oxoethyl)-8-methyl-9H-pyrimido[4,5-b]indole-6-carboxylate]
Cc1cc(C(=O)O)cc2c3c(N)ncnc3n(CC(=O)N3[C@@H]4C[C@@H]4C[C@H]3C(=O)Nc3cccc(Br)n3)c12 [Compound 218a, 4-amino-9-(2-((1R,3S,5R)-3-((6-bromopyridin-2-yl)carbamoyl)-2-azabicyclo[3.1.0]hexan-2-yl)-2-oxoethyl)-8-methyl-9H-pyrimido[4,5-b]indole-6-carboxylic acid]
Cc1cc(C(=O)O)cc2c3c(N)ncnc3n(CC(=O)N3[C@H](C(=O)Nc4cccc(Br)n4)C[C@@]4(C)C[C@@H]34)c12 [Compound 219a, 4-amino-9-(2-((1R,3S,5R)-3-((6-bromopyridin-2-yl)carbamoyl)-5-methyl-2-azabicyclo[3.1.0]hexan-2-yl)-2-oxoethyl)-8-methyl-9H-pyrimido[4,5-b]indole-6-carboxylic acid]

IC50, 100 to 1000 nM:
C[C@@H]1C[C@@H](C(=O)Nc2cccc(Br)n2)N(C(=O)Cn2c3ccc(C(F)(F)F)cc3c3c(N)ncnc32)C1 [Compound 206c, (2S,4R)-1-(2-(4-amino-6-(trifluoromethyl)-9H-pyrimido[4,5-b]indol-9-yl)acetyl)-N-(6-bromopyridin-2-yl)-4-methylpyrrolidine-2-carboxamide]
CC1(C)C[C@@H](C(=O)Nc2cccc(Br)n2)N(C(=O)Cn2c3ccc(C(F)(F)F)cc3c3c(N)ncnc32)C1 [Compound 210d, (S)-1-(2-(4-amino-6-(trifluoromethyl)-9H-pyrimido[4,5-b]indol-9-yl)acetyl)-N-(6-bromopyridin-2-yl)-4,4-dimethylpyrrolidine-2-carboxamide]
NC[C@@H]1C[C@@H](C(=O)Nc2cccc(Br)n2)N(C(=O)Cn2c3ccc(C(F)(F)F)cc3c3c(N)ncnc32)C1 [Compound 211e, (2S,4S)-1-(2-(4-amino-6-(trifluoromethyl)-9H-pyrimido[4,5-b]indol-9-yl)acetyl)-4-(aminomethyl)-N-(6-bromopyridin-2-yl)pyrrolidine-2-carboxamide]
NC[C@H]1C[C@@H](C(=O)Nc2cccc(Br)n2)N(C(=O)Cn2c3ccc(C(F)(F)F)cc3c3c(N)ncnc32)C1 [Compound 212e, (2S,4R)-1-(2-(4-amino-6-(trifluoromethyl)-9H-pyrimido[4,5-b]indol-9-yl)acetyl)-4-(aminomethyl)-N-(6-bromopyridin-2-yl)pyrrolidine-2-carboxamide]
Nc1ncnc2c1c1cccc(C(=O)O)c1n2CC(=O)N1[C@@H]2C[C@@H]2C[C@H]1C(=O)Nc1cccc(Br)n1 [Compound 220a, 4-amino-9-(2-((1R,3S,5R)-3-((6-bromopyridin-2-yl)carbamoyl)-2-azabicyclo[3.1.0]hexan-2-yl)-2-oxoethyl)-9H-pyrimido[4,5-b]indole-8-carboxylic acid]
